Measured values taken from patent publication EP1763350B1, “NICOTINAMIDE DERIVATIVES AND THEIR USE AS THERAPEUTIC AGENTS” (Xenon Pharmaceuticals Inc., priority 2004, dated 2006).
“And” between values parts separate entries of the source, which are not always exact repeats. Identical values can stand only once.

Biological target: T1, SCD (Mus musculus, UniProt P13516)
T1 construct: from tissue; host or cells: mouse liver microsomes (induced for SCD1 expression)
T1 sequence (P13516 1-355): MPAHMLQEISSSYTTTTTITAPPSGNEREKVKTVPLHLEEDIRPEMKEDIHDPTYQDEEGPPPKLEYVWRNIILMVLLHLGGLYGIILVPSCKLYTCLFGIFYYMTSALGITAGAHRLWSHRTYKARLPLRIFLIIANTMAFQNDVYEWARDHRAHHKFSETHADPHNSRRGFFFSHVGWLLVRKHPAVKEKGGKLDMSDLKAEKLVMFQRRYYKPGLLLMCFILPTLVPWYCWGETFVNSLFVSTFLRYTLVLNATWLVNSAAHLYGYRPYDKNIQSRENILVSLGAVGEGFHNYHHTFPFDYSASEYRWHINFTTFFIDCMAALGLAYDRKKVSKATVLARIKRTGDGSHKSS
Assay: SCD microsomal assay (tritiated stearoyl-CoA, release of labeled water), mouse liver microsomes
Format: biochemical
Conditions: % remaining SCD activity at 10 µM of test compound, 100 µg, preincubation 15 minutes, desaturation period 15 minutes at ambient temperature
Excerpt: The identification of compounds of the invention as SCD inhibitors was readily accomplished using the SCD enzyme and microsomal assay procedure described in Brownlie et al, supra.
The identification of compounds of the invention as SCD inhibitors was readily accomplished using the SCD enzymes and microsomal assay procedure described in Brownlie et al, PCT published patent application, WO 01/62954. Briefly, mouse or human liver microsomes (induced for SCD1 expression and containing cytochrome b5 and cytochrome b5 reductase) and NADH are suspended in buffer with a compound of the invention, and reaction is initiated by addition of 0.025 mM tritiated stearoyl-CoA. This ligand is tritiated at the C9 and C10 position only. The reaction is allowed to proceed for between 5 and 20 minutes at ambient temperature, whereupon it is halted by addition of acid. Activated charcoal is then added, mixed, and centrifuged to separate labeled substrate from labeled water. An aliquot of supernatant is than tested for radioactivity using liquid scintillation counting. This is taken as a measure of delta-9 desaturase activity.
Compounds were tested in mouse liver microsomes, 100 µg, preincubation with the test compound for 15 minutes at ambient temperature, a desaturation period for 15 minutes at ambient temperature, utilizing the large volume bench-top tube method. TABLE 3. SCD INHIBITORY ACTIVITY FOR SELECTED COMPOUNDS.

Question: How did the activity at 10 µM turn out when `CC(CCc1ccccc1)NC(=O)c1ccc(N2CCN(C(=O)c3ccc(Cl)cc3Cl)CC2)nc1` (centres unmarked) [6-[4-(2,4-Dichloro-benzoyl)-piperazin-1-yl]-N-(1-methyl-3-phenyl-propyl)-nicotinamide] was run?
Answer: 2.7%

Question: With `CCSCCNC(=O)c1ccc(N2CCN(C(=O)CCC3CCCCC3)CC2)nc1` [6-[4-(3-Cyclohexyl-propionyl)-piperazin-1-yl]-N-(2-ethylsulfanyl-ethyl)-nicotinamide] as the compound, how does the activity at 10 µM read?
Answer: 1.4%

Question: `CCCCCNC(=O)c1ccc(N2CCN(C(=O)c3ccc(Cl)cc3Cl)CC2)nc1` [6-[4-(2,4-Dichloro-benzoyl)-piperazin-1-yl]-N-pentyl-nicotinamide] was tested. Which activity at 10 µM did it give?
Answer: 1.2%

Question: How did the activity at 10 µM turn out when `CCC(C(=O)N1CCN(c2ccc(C(=O)NCCCc3ccccc3)cn2)CC1)c1ccccc1` (centres unmarked) [6-[4-(2-Phenyl-butyryl)-piperazin-1-yl]-N-(3-phenyl-propyl)-nicotinamide] was run?
Answer: 3.6%

Question: How did the activity at 10 µM turn out when `CC(C)CC(C)NC(=O)c1ccc(N2CCN(C(=O)c3ccccc3C(F)(F)F)CC2)nc1` (centres unmarked) [N-(1,3-Dimethylbutyl)-6-[4-(2-trifluoromethyl-benzoyl)-piperazin-1-yl]-nicotinamide] was run?
Answer: 1.8%

Question: How did the activity at 10 µM turn out when `Cc1ccsc1C(=O)N1CCN(c2ccc(C(=O)NC(C)CCc3ccccc3)cn2)CC1` (centres unmarked) [N-(1-Methyl-3-phenyl-propyl)-6-[4-(3-methyl-thiophene-2-carbonyl)-piperazin-1-yl]-nicotinamide] was run?
Answer: 3.4%

Question: Which activity at 10 µM does the source give for `Cc1ccccc1CC(=O)N1CCN(c2ccc(C(=O)NCCC(C)C)cn2)CC1` [N-(3-Methyl-butyl)-6-[4-(2-o-tolyl-acetyl)-piperazin-1-yl]-nicotinamide] here?
Answer: 3.2%

Question: With `CCCCOCCCNC(=O)c1ccc(N2CCN(C(=O)c3ccccc3Br)CC2)nc1` [6-[4-(2-Bromo-benzoyl)-piperazin-1-yl]-N-(3-butoxy-propyl)-nicotinamide] as the compound, how does the activity at 10 µM read?
Answer: 0.8%

Question: Which activity at 10 µM does the source give for `CCCCCNC(=O)c1ccc(N2CCN(C(=O)Cc3ccc4ccccc4c3)CC2)nc1` [6-[4-(2-Naphthalen-2-yl-acetyl)-piperazin-1-yl]-N-pentylnicotinamide] here?
Answer: 0.7%

Question: For `COc1ccc(Br)c(C(=O)N2CCN(c3ccc(C(=O)NCCc4ccccc4)cn3)CC2)c1` [6-[4-(2-Bromo-5-methoxy-benzoyl)-piperazin-1-yl]-N-phenethylnicotinamide], which activity at 10 µM is on record?
Answer: 1.1%

Question: `CCOCCCNC(=O)c1ccc(N2CCN(C(=O)c3ccccc3Br)CC2)nc1` [6-[4-(2-Bromo-benzoyl)-piperazin-1-yl]-N-(3-ethoxy-propyl)-nicotinamide] was tested. Which activity at 10 µM did it give?
Answer: 1%

Question: For `O=C(NCCCc1ccccc1)c1ccc(N2CCN(C(=O)c3ccccc3C(F)(F)F)CC2)nc1` [N-(3-Phenyl-propyl)-6-[4-(2-trifluoromethyl-benzoyl)-piperazin-1-yl]-nicotinamide], which “% Activity 10 µM” value is on record?
Answer: 3.9% and 1.3%

Question: Which activity at 10 µM does the source give for `CCSCCNC(=O)c1ccc(N2CCN(C(=O)c3cc(OC)ccc3Br)CC2)nc1` [6-[4-(2-Bromo-5-methoxy-benzoyl)-piperazin-1-yl]-N-(2-ethylsulfanylethyl)-nicotinamide] here?
Answer: 1.4%

Question: For `CCCCOCCCNC(=O)c1ccc(N2CCN(C(=O)c3ccc(C)cc3C)CC2)nc1` [N-(3-Butoxy-propyl)-6-[4-(2,4-dimethylbenzoyl)-piperazin-1-yl]-nicotinamide], which activity at 10 µM is on record?
Answer: 0.7%

Question: How did the activity at 10 µM turn out when `CCC(CC)C(=O)N1CCN(c2ccc(C(=O)NCCC(C)C)cn2)CC1` [6-[4-(2-Ethylbutyryl)-piperazin-1-yl]-N-(3-methylbutyl)-nicotinamide] was run?
Answer: 1.7%

Question: `CC(C)CCNC(=O)c1ccc(N2CCN(C(=O)CCC3CCCCC3)CC2)nc1` [6-[4-(3-Cyclohexyl-propionyl)-piperazin-1-yl]-N-(3-methylbutyl)-nicotinamide] was tested. Which activity at 10 µM did it give?
Answer: 1.3%

Question: `CCCCNC(=O)c1ccc(N2CCN(C(=O)C(CC)CC)CC2)nc1` [N-Butyl-6-[4-(2-ethylbutyryl)-piperazin-1-yl]-nicotinamide] was tested. Which activity at 10 µM did it give?
Answer: 2%

Question: With `CCSCCNC(=O)c1ccc(N2CCN(C(=O)Cc3ccc(C)cc3)CC2)nc1` [N-(2-Ethylsulfanyl-ethyl)-6-[4-(2-p-tolylacetyl)-piperazin-1-yl]-nicotinamide] as the compound, how does the activity at 10 µM read?
Answer: 1.8%

Question: With `CCCC(C)NC(=O)c1ccc(N2CCN(C(=O)CCC3CCCCC3)CC2)nc1` (centres unmarked) [6-[4-(3-Cyclohexyl-propionyl)-piperazin-1-yl]-N-(1-methylbutyl)-nicotinamide] as the compound, how does the activity at 10 µM read?
Answer: 2.1%

Question: How did the activity at 10 µM turn out when `COCCCNC(=O)c1ccc(N2CCN(C(=O)c3ccccc3Br)CC2)nc1` [6-[4-(2-Bromo-benzoyl)-piperazin-1-yl]-N-(3-methoxy-propyl)-nicotinamide] was run?
Answer: 1.2%
